Results published in article PMC6003237 (Bioorganic & medicinal chemistry, 2017).
Like-named read-outs stand apart in the source and are kept apart here. *1 amine or outer side, *2 acyl side, *3 side chain or, on linkers, in order; H or OH if unused. Where a SMILES comes first, the peptide text is derived from it. [ ]: non-standard residue; d: D form. The star is where a group is joined. Emetine(N2') = CC[C@H]1CN2CCc3cc(OC)c(OC)cc3[C@@H]2C[C@@H]1C[C@@H]1c2cc(OC)c(OC)cc2CCN1*; PABC = O=C(OCc1ccc(N[*:1])cc1)[*:2]

Tests used:
[1] = test system: different cancer cell lines; conditions: cited from earlier work
mice = conditions: for MTD (nmol injected): mice of average body weight 25 g; for dose producing acute toxicity (convulsions and death) / dose producing acute toxicity (convulsions and death), nmol: single IV injection

CC[C@H]1CN2CCc3cc(OC)c(OC)cc3[C@@H]2C[C@@H]1C[C@@H]1c2cc(OC)c(OC)cc2CCN1C(=O)CCC(=O)O [compound 22]
in vitro cytotoxicity compared to emetine [1]: much less toxic in vitro compared to emetine | Effects/observations at higher doses (mice; IV injection, mice): No remarkable behavior. Mice remained alive | MTD (nmol injected) (mice; IV injection): > 4305 nmol

CC[C@H]1CN2CCc3cc(OC)c(OC)cc3[C@@H]2C[C@@H]1C[C@@H]1c2cc(OC)c(OC)cc2CCN1C(=S)Nc1ccccc1 [compound 26]
in vitro cytotoxicity compared to emetine ([1]; cancer cell lines, ref [6]–[9]): less cytotoxic in vitro than emetine | dose without any observable sign of toxicity (mice; male, Balb/c, mouse, in vivo, iv): up to 100 mg/kg

CC[C@H]1CN2CCc3cc(OC)c(OC)cc3[C@@H]2C[C@@H]1C[C@@H]1c2cc(OC)c(OC)cc2CCN1C(=O)OCc1ccc([N+](=O)[O-])cc1 [compound 25]
fold less cytotoxic than emetine in vitro ([1]; different cancer cell lines, ref [6]–[9]): about 200 fold | Effects/observations at higher doses (mice; IV injection, mice): No remarkable behavior, no sign of toxicity. Mice remained alive | dose without any observable sign of toxicity (mice; IV injection, mice): 64 mg/kg | dose without any observable sign of toxicity, nmol (mice; IV injection, mice): 2425 nmol | MTD (nmol injected) (mice; IV injection): > 2425 nmol

CC[C@H]1CN2CCc3cc(OC)c(OC)cc3[C@@H]2C[C@@H]1C[C@@H]1c2cc(OC)c(OC)cc2CCN1C(=O)[C@@H]1CCCN1C(=O)[C@H](C)N [compound 23]
in vitro cytotoxicity compared to 10 ([1]; in vitro cytotoxicity assays, ref [9]): significantly less active | Effects/observations at higher doses (mice; IV injection, mice): Convulsion and death within 1 min of injection at 16 mg/kg (617 nmol) | dose producing acute toxicity (convulsions and death) (mice; mice): 16 mg/kg | dose producing acute toxicity (convulsions and death), nmol (mice; mice): 617 nmol

CC[C@H]1CN2CCc3cc(OC)c(OC)cc3[C@@H]2C[C@@H]1C[C@@H]1c2cc(OC)c(OC)cc2CCN1C(=O)/C=C(/CC(=O)O)C(=O)O [compound 20]
in vitro cytotoxicity compared to emetine [1]: much less toxic in vitro compared to emetine | Effects/observations at higher doses (mice; IV injection, mice): No remarkable behavior even at higher doses. Mice remained alive | MTD (nmol injected) (mice; IV injection): > 3926 nmol

CC[C@H]1CN2CCc3cc(OC)c(OC)cc3[C@@H]2C[C@@H]1C[C@@H]1c2cc(OC)c(OC)cc2CCN1C(=O)OCc1ccc(NC(=O)[C@@H]2CCCN2C(=O)[C@H](C)NC(=O)[C@@H]2CCCN2C(=O)[C@H](C)NC(C)=O)cc1 [compound 24] (Ac-APAP[PABC]-{Emetine(N2')})
Effects/observations at higher doses (mice; IV injection, mice): Intermittent convulsion started 1 min post injection of 33 mg/kg dose (818 nmol). Death occurred after about 8 min | dose producing acute toxicity (convulsions and death) (mice; mice): 33 mg/kg | dose producing acute toxicity (convulsions and death), nmol (mice; mice): 818 nmol

CC[C@H]1CN2CCc3cc(OC)c(OC)cc3[C@@H]2C[C@@H]1C[C@@H]1c2cc(OC)c(OC)cc2CCN1C(=O)/C=C(/C)C(=O)O [compound 19]
in vitro cytotoxicity compared to emetine [1]: much less toxic in vitro compared to emetine | Effects/observations at higher doses (mice; IV injection, mice): No remarkable behavior even at higher doses. Mice remained alive | MTD (nmol injected) (mice; IV injection): > 4218 nmol

CC[C@H]1CN2CCc3cc(OC)c(OC)cc3[C@@H]2C[C@@H]1C[C@@H]1c2cc(OC)c(OC)cc2CCN1C(=S)[S-].[Na+] [compound 18]
in vitro cytotoxicity compared to emetine ([1]; cancer cell lines, ref [6]–[9]): much less toxic in vitro compared to emetine | Effects/observations at higher doses (mice; IV injection, mice): No remarkable behavior even at higher doses. Mice remained alive | MTD (nmol injected) (mice; IV injection): > 4320 nmol
